Assay results as given in ChEMBL document CHEMBL3046292, “The effects of luteolin on phenoloxidase and the growth of Spodoptera exigua (Hubner) larvae (Lepidoptera: Noctuidae)” (J Pestic Sci, 2010).
Converted amounts (≈) assume the structure as drawn. The source made the active and inactive calls. The calls are words filed in the database; no cut-off is given here.

What was measured:
[1] = tested on: Spodoptera exigua; assay: Insecticidal activity against third-instar Spodoptera exigua larvae assessed as eclosion at 0.8 g/l (reference value: 96.67 +/- 1.40%); assay type: functional
[2] = tested on: Spodoptera exigua; assay: Insecticidal activity against third-instar Spodoptera exigua larvae assessed as mortality at 8 g/l measured after 5 days; assay type: functional; conditions: 120 h
[3] = tested on: Spodoptera exigua; assay: Insecticidal activity against third-instar Spodoptera exigua larvae assessed as inhibition of body weight increase at 1 g/l measured from 24 hr to 48 hr; assay type: functional
[4] = tested on: Spodoptera exigua; assay: Insecticidal activity against third-instar Spodoptera exigua larvae assessed as mortality treated after 5 days; assay type: functional; conditions: 120 h
[5] = tested on: Spodoptera exigua; assay: Insecticidal activity against third-instar Spodoptera exigua larvae assessed as per pupa weight at 0.2 g/l by pupa weight inhibition assay (reference value: 0.1054 +/- 0.01 g/pupae); assay type: functional
[6] = tested on: Spodoptera exigua; assay: Insecticidal activity against third-instar Spodoptera exigua larvae assessed as mortality at 16 g/l measured after 11 days; assay type: functional; conditions: 264 h
[7] = tested on: Spodoptera exigua; assay: Insecticidal activity against third-instar Spodoptera exigua larvae assessed as mortality at 2 g/l measured after 3 days; assay type: functional; conditions: 72 h
[8] = tested on: Spodoptera exigua; assay: Insecticidal activity against third-instar Spodoptera exigua larvae assessed as mortality at 8 g/l measured after 7 days; assay type: functional; conditions: 168 h
[9] = tested on: Spodoptera exigua; assay: Insecticidal activity against third-instar Spodoptera exigua larvae assessed as eclosion at 1.6 g/l (reference value: 96.67 +/- 1.40%); assay type: functional
[10] = tested on: Spodoptera exigua; assay: Insecticidal activity against third-instar Spodoptera exigua larvae assessed as inhibition of body weight increase at 16 g/l measured from 24 hr to 48 hr; assay type: functional
[11] = tested on: Spodoptera exigua; assay: Insecticidal activity against third-instar Spodoptera exigua larvae assessed as mortality at 16 g/l measured after 9 days; assay type: functional; conditions: 216 h
[12] = molecular target: T1, Phenol oxidase (Plutella xylostella) (UniProt B5U2Z5); assay: Inhibition of Spodoptera exigua larvae phenoloxidase assessed as remaining activity at 0.45 mmol/l
T1 sequence (whole entry): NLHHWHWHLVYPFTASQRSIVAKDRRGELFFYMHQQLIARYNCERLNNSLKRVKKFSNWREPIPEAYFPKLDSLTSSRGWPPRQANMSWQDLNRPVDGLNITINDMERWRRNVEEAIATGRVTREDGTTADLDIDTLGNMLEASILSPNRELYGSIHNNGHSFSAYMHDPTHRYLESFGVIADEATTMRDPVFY

[13] = tested on: Spodoptera exigua; assay: Insecticidal activity against third-instar Spodoptera exigua larvae assessed as mortality at 16 g/l measured after 3 days; assay type: functional; conditions: 72 h
[14] = tested on: Spodoptera exigua; assay: Insecticidal activity against third-instar Spodoptera exigua larvae assessed as mortality treated after 7 days; assay type: functional; conditions: 168 h
[15] = tested on: Spodoptera exigua; assay: Insecticidal activity against third-instar Spodoptera exigua larvae assessed as mortality at 8 g/l measured after 11 days; assay type: functional; conditions: 264 h
[16] = tested on: Spodoptera exigua; assay: Insecticidal activity against third-instar Spodoptera exigua larvae assessed as mortality at 2 g/l measured after 11 days; assay type: functional; conditions: 264 h
[17] = tested on: Spodoptera exigua; assay: Insecticidal activity against third-instar Spodoptera exigua larvae assessed as per pupa weight at 1.6 g/l by pupa weight inhibition assay (reference value: 0.1054 +/- 0.01 g/pupae); assay type: functional
[18] = tested on: Spodoptera exigua; assay: Insecticidal activity against third-instar Spodoptera exigua larvae assessed as per pupa weight at 0.8 g/l by pupa weight inhibition assay (reference value: 0.1054 +/- 0.01 g/pupae); assay type: functional
[19] = tested on: Spodoptera exigua; assay: Insecticidal activity against third-instar Spodoptera exigua larvae assessed as inhibition of body weight increase at 8 g/l measured from 24 hr to 48 hr; assay type: functional
[20] = tested on: Spodoptera exigua; assay: Insecticidal activity against third-instar Spodoptera exigua larvae assessed as mortality at 16 g/l measured after 5 days; assay type: functional; conditions: 120 h
[21] = tested on: Spodoptera exigua; assay: Insecticidal activity against third-instar Spodoptera exigua larvae assessed as pupation at 0.4 g/l (reference value: 96.67 +/- 1.40%); assay type: functional
[22] = tested on: Spodoptera exigua; assay: Insecticidal activity against third-instar Spodoptera exigua larvae assessed as mortality at 2 g/l measured after 5 days; assay type: functional; conditions: 120 h
[23] = tested on: Spodoptera exigua; assay: Insecticidal activity against third-instar Spodoptera exigua larvae assessed as mortality at 4 g/l measured after 5 days; assay type: functional; conditions: 120 h
[24] = molecular target: T1, Phenol oxidase (Plutella xylostella); assay: In vivo inhibition of Spodoptera exigua larvae phenoloxidase
[25] = tested on: Spodoptera exigua; assay: Insecticidal activity against third-instar Spodoptera exigua larvae assessed as mortality at 8 g/l measured after 9 days; assay type: functional; conditions: 216 h
[26] = tested on: Spodoptera exigua; assay: Insecticidal activity against third-instar Spodoptera exigua larvae assessed as pupation at 0.1 g/l (reference value: 96.67 +/- 1.40%); assay type: functional
[27] = tested on: Spodoptera exigua; assay: Insecticidal activity against third-instar Spodoptera exigua larvae assessed as mortality at 4 g/l measured after 3 days; assay type: functional; conditions: 72 h
[28] = tested on: Spodoptera exigua; assay: Insecticidal activity against third-instar Spodoptera exigua larvae assessed as mortality treated after 11 days; assay type: functional; conditions: 264 h
[29] = tested on: Spodoptera exigua; assay: Insecticidal activity against third-instar Spodoptera exigua larvae assessed as pupation at 0.2 g/l (reference value: 96.67 +/- 1.40%); assay type: functional
[30] = tested on: Spodoptera exigua; assay: Insecticidal activity against third-instar Spodoptera exigua larvae assessed as eclosion at 0.2 g/l (reference value: 96.67 +/- 1.40%); assay type: functional
[31] = tested on: Spodoptera exigua; assay: Insecticidal activity against third-instar Spodoptera exigua larvae assessed as mortality at 4 g/l measured after 9 days; assay type: functional; conditions: 216 h
[32] = tested on: Spodoptera exigua; assay: Insecticidal activity against third-instar Spodoptera exigua larvae assessed as per pupa weight at 0.1 g/l by pupa weight inhibition assay (reference value: 0.1054 +/- 0.01 g/pupae); assay type: functional
[33] = tested on: Spodoptera exigua; assay: Insecticidal activity against third-instar Spodoptera exigua larvae assessed as mortality at 2 g/l measured after 9 days; assay type: functional; conditions: 216 h
[34] = tested on: Spodoptera exigua; assay: Insecticidal activity against third-instar Spodoptera exigua larvae assessed as inhibition of body weight increase at 2 g/l measured from 24 hr to 48 hr; assay type: functional
[35] = tested on: Spodoptera exigua; assay: Insecticidal activity against third-instar Spodoptera exigua larvae assessed as pupation at 0.8 g/l (reference value: 96.67 +/- 1.40%); assay type: functional
[36] = tested on: Spodoptera exigua; assay: Insecticidal activity against third-instar Spodoptera exigua larvae assessed as mortality treated after 9 days; assay type: functional; conditions: 216 h
[37] = tested on: Spodoptera exigua; assay: Insecticidal activity against third-instar Spodoptera exigua larvae assessed as pupation at 1.6 g/l (reference value: 96.67 +/- 1.40%); assay type: functional
[38] = tested on: Spodoptera exigua; assay: Insecticidal activity against third-instar Spodoptera exigua larvae assessed as per pupa weight at 0.4 g/l by pupa weight inhibition assay (reference value: 0.1054 +/- 0.01 g/pupae); assay type: functional
[39] = tested on: Spodoptera exigua; assay: Insecticidal activity against third-instar Spodoptera exigua larvae assessed as mortality at 8 g/l measured after 3 days; assay type: functional; conditions: 72 h
[40] = tested on: Spodoptera exigua; assay: Insecticidal activity against third-instar Spodoptera exigua larvae assessed as eclosion at 0.4 g/l (reference value: 96.67 +/- 1.40%); assay type: functional
[41] = tested on: Spodoptera exigua; assay: Insecticidal activity against third-instar Spodoptera exigua larvae assessed as inhibition of body weight increase at 4 g/l measured from 24 hr to 48 hr; assay type: functional
[42] = tested on: Spodoptera exigua; assay: Insecticidal activity against third-instar Spodoptera exigua larvae assessed as mortality at 2 g/l measured after 7 days; assay type: functional; conditions: 168 h
[43] = tested on: Spodoptera exigua; assay: Insecticidal activity against third-instar Spodoptera exigua larvae assessed as mortality at 4 g/l measured after 7 days; assay type: functional; conditions: 168 h
[44] = tested on: Spodoptera exigua; assay: Insecticidal activity against third-instar Spodoptera exigua larvae assessed as mortality at 4 g/l measured after 11 days; assay type: functional; conditions: 264 h
[45] = molecular target: T1, Phenol oxidase (Plutella xylostella); assay: Inhibition of Spodoptera exigua larvae phenoloxidase assessed as remaining activity at 0.15 mmol/l
[46] = tested on: Spodoptera exigua; assay: Insecticidal activity against third-instar Spodoptera exigua larvae assessed as mortality at 16 g/l measured after 7 days; assay type: functional; conditions: 168 h
[47] = tested on: Spodoptera exigua; assay: Insecticidal activity against third-instar Spodoptera exigua larvae assessed as eclosion at 0.1 g/l (reference value: 96.67 +/- 1.40%); assay type: functional

O=c1cc(-c2ccc(O)c(O)c2)oc2cc(O)cc(O)c12 [LUTEOLIN]
Activity [1]: 43.33% | mortality at 8000 µg/mL [2]: 47.3% | inhibition at 1000 µg/mL [3]: 38% | LC50 [4]: 8970 µg/mL (≈ 31.3 mM) | Activity [5]: 0.0898 g | mortality at 16000 µg/mL [6]: 90.5% | mortality at 2000 µg/mL [7]: 10.1% | mortality at 8000 µg/mL [8]: 57.7% | Activity [9]: 36.67% | inhibition at 16000 µg/mL [10]: 66.8% | mortality at 16000 µg/mL [11]: 84.1% | Activity [12]: 45.3% | mortality at 16000 µg/mL [13]: 33.2% | LC50 [14]: 5560 µg/mL (≈ 19.4 mM) | mortality at 8000 µg/mL [15]: 77.7% | mortality at 2000 µg/mL [16]: 42.6% | Activity [17]: 0.0647 g | Activity [18]: 0.0743 g | inhibition at 8000 µg/mL [19]: 56.8% | mortality at 16000 µg/mL [20]: 60.6% | Activity [21]: 70% | mortality at 2000 µg/mL [22]: 15.8% | mortality at 4000 µg/mL [23]: 38% | inhibition [24]: Active | mortality at 8000 µg/mL [25]: 72.9% | Activity [26]: 96.67% | mortality at 4000 µg/mL [27]: 23.5% | LC50 [28]: 2530 µg/mL (≈ 8.84 mM) | Activity [29]: 90% | Activity [30]: 83.33% | mortality at 4000 µg/mL [31]: 57.4% | Activity [32]: 0.0905 g | mortality at 2000 µg/mL [33]: 33.8% | inhibition at 2000 µg/mL [34]: 42.7% | Activity [35]: 53.33% | LC50 [36]: 3540 µg/mL (≈ 12.4 mM) | Activity [37]: 36.67% | Activity [38]: 0.0798 g | mortality at 8000 µg/mL [39]: 29.8% | Activity [40]: 66.67% | inhibition at 4000 µg/mL [41]: 49.6% | mortality at 2000 µg/mL [42]: 26.3% | mortality at 4000 µg/mL [43]: 48.5% | mortality at 4000 µg/mL [44]: 61% | Activity [45]: 67.2% | mortality at 16000 µg/mL [46]: 74.5% | Activity [47]: 86.67%
